Measured values published in patent US8012975B2, “Antitumoral analogs of ET-743” (Pharma Mar, S.A., priority 2000, dated 2011).
Where two headings read alike, the source gives them in different places.

Experiments:
[1] = test system: A549; assay: Cytotoxic activity (M) panel, NSCL A549; settings: Homo sapiens, A549, read-out: CYTOTOXIC ACTIVITY (M) A549
[2] = test system: OSA-FH; assay: Cytotoxic activity (M) panel, Osteosarcoma OSA-FH; settings: read-out: CYTOTOXIC ACTIVITY (M) OSA-FH
[3] = test system: FADU; assay: Cytotoxic activity (M) panel, Pharnynx FADU; settings: Homo sapiens, read-out: CYTOTOXIC ACTIVITY (M) FADU
[4] = test system: MEL-28; assay: Cytotoxic activity (M) panel, Melanoma Mel-28; settings: Homo sapiens, SK-MEL-28, read-out: CYTOTOXIC ACTIVITY (M) Mel-28
[5] = test system: 786-O; assay: Cytotoxic activity (M) panel, Renal 786-O; settings: Homo sapiens, 786-0, read-out: CYTOTOXIC ACTIVITY (M) 786-O
[6] = test system: PANC-1; assay: Cytotoxic activity (M) panel, Pancreas PANC-1; settings: Homo sapiens, PANC-1, read-out: CYTOTOXIC ACTIVITY (M) PANC-1
[7] = test system: HT-29; assay: Cytotoxic activity (M) panel, Colon HT-29; settings: Homo sapiens, HT-29, read-out: CYTOTOXIC ACTIVITY (M) HT-29
[8] = test system: PC3; assay: Cytotoxic activity (M) panel, Prostate PC3; settings: Homo sapiens, PC-3, read-out: CYTOTOXIC ACTIVITY (M) PC3
[9] = test system: 5637; assay: Cytotoxic activity (M) panel, Bladder 5637; settings: read-out: CYTOTOXIC ACTIVITY (M) 5637
[10] = test system: CHSA; assay: Cytotoxic activity (M) panel, Chondrosarcoma CHSA; settings: read-out: CYTOTOXIC ACTIVITY (M) CHSA
[11] = test system: Hs746t; assay: Cytotoxic activity (M) panel, Gastric Hs746t; settings: Homo sapiens, read-out: CYTOTOXIC ACTIVITY (M) Hs746t
[12] = test system: SK-HEP-1; assay: Cytotoxic activity (M) panel, Liver SK-HEP-1; settings: Homo sapiens, SK-HEP1, read-out: CYTOTOXIC ACTIVITY (M) SK-HEP-1
[13] = test system: MC116; assay: Cytotoxic activity (M) panel, Lymphoma undifferentiated MC116; settings: Homo sapiens, MC116, read-out: CYTOTOXIC ACTIVITY (M) MC116, leukemias & lymphomas, Lymphoma undifferentiated, line MC116
[14] = test system: Molt 3; assay: Cytotoxic activity (M) panel, Acute lymphoblastic Molt 3; settings: Homo sapiens, MOLT-3, read-out: CYTOTOXIC ACTIVITY (M) Molt 3, leukemias & lymphomas, ALL Acute lymphoblastic, line Molt 3
[15] = test system: H9; assay: cells; settings: Homo sapiens, H9, read-out: CYTOTOXIC ACTIVITY (M) H9, leukemias & lymphomas, Lymphoma T-cell, line H9
[16] = test system: HL60; assay: cells; settings: Homo sapiens, HL-60, read-out: CYTOTOXIC ACTIVITY (M) HL60, leukemias & lymphomas, ALL Promyelocytic leukemia, line HL60
[17] = test system: K562; assay: cells; settings: Homo sapiens, K562, read-out: CYTOTOXIC ACTIVITY (M) K562
[18] = test system: Hut 78; assay: Cytotoxic activity (M) panel, Lymphoma Cutaneus T cell Hut 78; settings: Homo sapiens, HuT78, read-out: CYTOTOXIC ACTIVITY (M) Hut 78, leukemias & lymphomas, Lymphoma Cutaneus T cell, line Hut 78
[19] = test system: RAMOS; assay: cells; settings: Homo sapiens, read-out: CYTOTOXIC ACTIVITY (M) RAMOS, leukemias & lymphomas, Lymphoma Burkitts B celll, line RAMOS
[20] = test system: SK-OV-3; assay: Cytotoxic activity (M) panel, Ovary SK-OV-3; settings: Homo sapiens, SK-OV-3, read-out: CYTOTOXIC ACTIVITY (M) SK-OV-3
[21] = test system: LNCAP; assay: Cytotoxic activity (M) panel, Prostate LNCAP; settings: Homo sapiens, read-out: CYTOTOXIC ACTIVITY (M) LNCAP
[22] = test system: NCI-H187; assay: Cytotoxic activity (M) panel, SCL NCI-H187; settings: Homo sapiens, NCI-H187, read-out: CYTOTOXIC ACTIVITY (M) NCI-H187
[23] = test system: Y-79; assay: Cytotoxic activity (M) panel, Retinoblastoma Y-79; settings: Homo sapiens, Y79, read-out: CYTOTOXIC ACTIVITY (M) Y-79
[24] = test system: DU-145; assay: Cytotoxic activity (M) panel, Prostate DU-145; settings: Homo sapiens, DU-145, read-out: CYTOTOXIC ACTIVITY (M) DU-145
[25] = test system: MX-1; assay: Cytotoxic activity (M) panel, Breast MX-1; settings: Homo sapiens, MX1, read-out: CYTOTOXIC ACTIVITY (M) MX-1
[26] = test system: U-937; assay: Cytotoxic activity (M) panel, Lymphoma Histiocytic U-937; settings: Homo sapiens, U-937, read-out: CYTOTOXIC ACTIVITY (M) U-937
[27] = test system: SW-694; assay: Cytotoxic activity (M) panel, Fibrosarcoma SW-694; settings: read-out: CYTOTOXIC ACTIVITY (M) SW-694
[28] = test system: RAMOS
[29] = test system: Molt 3

CCCCCC(=O)NC[C@H]1c2c(c(OC(C)=O)c(C)c3c2OCO3)CC2[C@H]3c4c(cc(C)c(OC)c4O)C[C@@H]([C@H](O)N21)N3C (stereo partly shown) [drawing 226]
IC50 [1]: 9.41e-09 M | IC50 [2]: 1.3e-09 M | IC50 [3]: 1.39e-08 M | IC50 [4]: 1.15e-09 M | IC50 [5]: 1.72e-09 M | IC50 [6]: 1e-09 M | IC50 [7]: 8.97e-09 M | IC50 [8]: 9.32e-10 M | IC50 [9]: 2.84e-10 M | IC50 [10]: 2.1e-09 M | IC50 [11]: 9.19e-09 M | IC50 [12]: 1.08e-09 M

CCC(=O)NC[C@H]1c2c(c(OC(C)=O)c(C)c3c2OCO3)CC2[C@H]3c4c(cc(C)c(OC)c4O)C[C@@H]([C@H](O)N21)N3C (stereo partly shown) [drawing 231]
IC50 [13]: 1.04e-09 M | IC50 [14]: 9.86e-10 M | IC50 [15]: 1.2e-08 M | IC50 [16]: 4.93e-10 M | IC50 [17]: 1.87e-08 M

COc1c(C)cc2c(c1O)[C@@H]1C3Cc4c(OC(C)=O)c(C)c5c(c4[C@H](CNC(=O)Cc4ccccc4)N3[C@@H](O)[C@H](C2)N1C)OCO5 (stereo partly shown) [drawing 224]
IC50 [13]: 1.13e-08 M | IC50 [18]: 7.46e-09 M | IC50 [14]: 2.54e-09 M | IC50 [19]: 7.15e-09 M | IC50 [16]: 3.97e-10 M

COc1c(C)cc2c(c1O)[C@@H]1C3Cc4c(OC(C)=O)c(C)c5c(c4[C@H](CNC(=O)[C@H](C)NC(=O)Cc4ccccc4)N3[C@@H](O)[C@H](C2)N1C)OCO5 (stereo partly shown) [drawing 223]
IC50 [13]: 1.41e-09 M | IC50 [18]: 1.06e-08 M | IC50 [14]: 8.85e-10 M | IC50 [19]: 8.85e-10 M | IC50 [15]: 1.14e-08 M | IC50 [16]: 1.23e-10 M | IC50 [17]: 4.45e-08 M

COc1c(C)cc2c(c1O)[C@@H]1C3Cc4c(OC(C)=O)c(C)c5c(c4[C@H](CNC(=O)[C@H](C)NC(=O)C(F)(F)F)N3[C@@H](O)[C@H](C2)N1C)OCO5 (stereo partly shown) [drawing 212]
IC50 [1]: 7.68e-06 M | IC50 [2]: 1.39e-09 M | IC50 [20]: 1.02e-07 M | IC50 [3]: 1.58e-09 M | IC50 [21]: 2.17e-10 M | IC50 [4]: 3.17e-09 M | IC50 [5]: 1.59e-09 M | IC50 [6]: 4.17e-09 M | IC50 [7]: 1.97e-08 M | IC50 [22]: 9.57e-10 M | IC50 [8]: 2.15e-09 M | IC50 [9]: 3.42e-10 M | IC50 [23]: 7.36e-10 M | IC50 [10]: 6.77e-09 M | IC50 [24]: 1.83e-07 M | IC50 [11]: 2.18e-09 M | IC50 [12]: 6.01e-11 M

CCCC(=O)OC[C@H]1c2c(c(OC(C)=O)c(C)c3c2OCO3)CC2[C@H]3c4c(cc(C)c(OC)c4O)C[C@@H]([C@H](O)N21)N3C (stereo partly shown) [drawing 236]
IC50 [1]: 8.49e-09 M | IC50 [2]: 5.01e-08 M | IC50 [20]: 3.55e-08 M | IC50 [3]: 2.47e-08 M | IC50 [21]: 3.29e-07 M | IC50 [4]: 1.25e-08 M | IC50 [5]: 1.13e-08 M | IC50 [6]: 1.28e-08 M | IC50 [7]: 1.34e-08 M | IC50 [22]: 2.33e-10 M | IC50 [25]: 4.75e-08 M | IC50 [8]: 6.18e-10 M | IC50 [9]: 3.02e-08 M | IC50 [23]: 2.64e-09 M | IC50 [10]: 2.95e-08 M | IC50 [24]: 1.17e-08 M | IC50 [11]: 7.05e-07 M | IC50 [12]: 6.12e-08 M

CCCCCC(=O)NC[C@H]1c2c(c(OC(C)=O)c(C)c3c2OCO3)CC2[C@H]3c4c(cc(C)c(OC)c4O)C[C@@H]([C@H](O)N21)N3C (stereo partly shown) [drawing 230]
IC50 [13]: 3.81e-09 M | IC50 [18]: 1.97e-09 M | IC50 [14]: 3.87e-09 M | IC50 [19]: 1.1e-09 M | IC50 [15]: 1.08e-08 M | IC50 [26]: 1.08e-09 M | IC50 [16]: 1.5e-08 M | IC50 [17]: 6.89e-08 M

COc1c(C)cc2c(c1O)[C@@H]1C3Cc4c(OC(C)=O)c(C)c5c(c4[C@H](CNC(=O)/C=C/c4cccc(C(F)(F)F)c4)N3[C@@H](O)[C@H](C2)N1C)OCO5 (stereo partly shown) [drawing 211]
IC50 [1]: 3.25e-09 M | IC50 [20]: 4.39e-11 M | IC50 [3]: 5.41e-11 M | IC50 [27]: 9.91e-10 M | IC50 [21]: 5.45e-10 M | IC50 [4]: 2.6e-10 M | IC50 [5]: 6.58e-12 M | IC50 [6]: 7.22e-11 M | IC50 [7]: 7.84e-10 M | IC50 [25]: 1.65e-06 M | IC50 [8]: 6.65e-09 M | IC50 [9]: 6.02e-10 M | IC50 [10]: 3.24e-10 M | IC50 [24]: 5.73e-10 M | IC50 [11]: 7.9e-12 M | IC50 [12]: 1.79e-12 M

COc1c(C)cc2c(c1O)[C@@H]1C3Cc4c(OC(C)=O)c(C)c5c(c4[C@H](CNC(=O)CCc4ccccc4)N3[C@@H](O)[C@H](C2)N1C)OCO5 (stereo partly shown) [drawing 221]
IC50 [28]: 0.777 pM | IC50 [18]: 6.21e-11 M | IC50 [15]: 1.99e-11 M | IC50 [29]: 0.0155 pM | IC50 [26]: 3.06e-11 M | IC50 [16]: 9.38e-09 M | IC50 [17]: 2.33e-07 M

COc1c(C)cc2c(c1O)[C@@H]1C3Cc4c(OC(C)=O)c(C)c5c(c4[C@H](CNC(=O)[C@H](C)NC(=O)CCc4ccccc4)N3[C@@H](O)[C@H](C2)N1C)OCO5 (stereo partly shown) [drawing 222]
IC50 [18]: 9.9e-10 M | IC50 [14]: 7.53e-12 M | IC50 [19]: 5.26e-11 to 1.1e-10 M | IC50 [15]: 4.48e-09 M | IC50 [26]: 5.15e-10 M | IC50 [16]: 5.92e-09 M | IC50 [17]: 1.09e-08 M

CCCC(=O)OC[C@H]1c2c(c(OC(C)=O)c(C)c3c2OCO3)CC2[C@H]3c4c(cc(C)c(OC)c4O)C[C@@H]([C@H](O)N21)N3C (stereo partly shown) [drawing 240]
IC50 [13]: 1.51e-08 M | IC50 [18]: 2.06e-08 M | IC50 [14]: 4.63e-08 M | IC50 [19]: 9.09e-09 M | IC50 [15]: 6.76e-08 M | IC50 [26]: 1.03e-08 M | IC50 [17]: 2.11e-08 M

COc1c(C)cc2c(c1O)[C@@H]1C3Cc4c(OC(C)=O)c(C)c5c(c4[C@H](COC(=O)CCc4ccccc4)N3[C@@H](O)[C@H](C2)N1C)OCO5 (stereo partly shown) [drawing 235]
IC50 [1]: 8.22e-06 M | IC50 [2]: 1.29e-09 M | IC50 [3]: 5.4e-11 M | IC50 [27]: 8.53e-06 M | IC50 [4]: 2.23e-08 M | IC50 [5]: 9.23e-10 M | IC50 [6]: 5.68e-10 M | IC50 [7]: 8.99e-09 M | IC50 [8]: 7.71e-10 M | IC50 [9]: 7.88e-10 M | IC50 [23]: 1.03e-08 M | IC50 [10]: 1.55e-05 M | IC50 [11]: 2.95e-08 M | IC50 [12]: 1.29e-09 M

COc1c(C)cc2c(c1O)[C@@H]1C3Cc4c(OC(C)=O)c(C)c5c(c4[C@H](COC(=O)/C=C/c4cccc(C(F)(F)F)c4)N3[C@@H](O)[C@H](C2)N1C)OCO5 (stereo partly shown) [drawing 237]
IC50 [13]: 1.69e-08 M | IC50 [18]: 6.47e-08 M | IC50 [14]: 1.44e-08 M | IC50 [19]: 8.86e-09 M | IC50 [15]: 1.56e-07 M | IC50 [26]: 7.6e-08 M | IC50 [17]: 1.56e-07 M
